This note sets out measurements from ChEMBL document CHEMBL4619799, “Mechanistic Insight into Antiretroviral Potency of 2'-Deoxy-2'-β-fluoro-4'-azidocytidine (FNC) with a Long-Lasting Effect on HIV-1 Prevention” (J Med Chem, 2020).

SMILES strings stand for the structures. Active and inactive are the calls of the source. The calls are words filed in the database; no cut-off is given here. Peptide text beside a SMILES is read from it. * marks the point of attachment. Cbz = O=C(OCc1ccccc1)*

For series [1], the system named is Human immunodeficiency virus 1. The series is described as follows: Antiviral activity against VSVG pseudotyped HIV1 infected in HEK293 cells preincubated for 3 hrs followed by compound washout and subsequent compound redosing and measured after 72 hrs by luciferase reporter gene based assay. The series is classed as functional, organism-based. To be noted: Human immunodeficiency virus 1, HEK293. For orientation: In a reporter assay the amount or activity of a reporter protein is the signal.

Series [2] can be described thus: Cytotoxicity against HEK293 cells assessed as cell viability by MTT assay. It is filed as cell-based. To be noted: human. On the technique in general: Tetrazolium assays rely on reduction of a dye to a coloured formazan, in cell work by metabolically active cells.
Series [3] has as its target Virion infectivity factor (Human immunodeficiency virus type 1 group M subtype B (isolate NY5)(HIV-1)) (UniProt P12504). Briefly: Inhibition of HIV1 HA-tagged Vif expressed in HEK293T cells co-expressing Myc-tagged pcDNA-APOBEC3G and pcDNA-ubiquitin-His assessed as reduction in Vif-mediated A3G polyubiquitination at 10 uM measured after 16 hrs by Western blot analysis. The series is classed as cell-based. The note with it: Human immunodeficiency virus 1, HEK-293T. Background: A western blot detects proteins with antibodies after separation by electrophoresis.

Series [4] shares this target. Briefly: Inhibition of HIV1 HA-tagged Vif expressed in HEK293T cells co-expressing Myc-tagged pcDNA-APOBEC3G assessed as reduction in Vif-mediated A3G degradation at 10 uM measured after 16 hrs by Western blot analysis. It is filed as cell-based. To be noted: Human immunodeficiency virus 1, HEK-293T.
A short description of series [5]: Binding affinity to HIV1 Vif and CBFbeta-ELOB-ELOC complex (unknown origin) by CM5 chip based assay.
Series [6] is described as follows: Tmax in monkey plasma at 20 mg/kg, po administered as single dose by LC-MS/MS analysis. It is filed as ADME, organism-based, Macaca mulatta. The note with it: rhesus monkey.
Series [7] in a line: Cmax in monkey PBMC assessed as 3TC-TP level at 20 mg/kg, po administered as single dose by LC-MS/MS analysis. It is filed as ADME, organism-based, Macaca mulatta. On the set-up: dose 20 mg/kg, route oral. To be noted: rhesus monkey, in vivo.
The test system of series [8] is Human immunodeficiency virus 1. Briefly: Antiviral activity against JRFL pseudotyped HIV1 infected in human Hut/CCR5 cells assessed as time needed to reach 50% reduction of virus infection at 10000 nM incubated with cells for 4 hrs prior to compound washout followed by viral infection and measured after 72 hrs by luciferase reporter gene assay. The series is classed as functional.

The target in series [9] is Virion infectivity factor (Human immunodeficiency virus type 1 group M subtype B (isolate NY5)(HIV-1)) (UniProt P12504). The series is described as follows: Inhibition of HIV1 HA-tagged Vif expressed in HEK293T cells co-expressing eGFP-tagged pcDNA-APOBEC3G assessed as reduction in Vif-mediated A3G degradation at 10000 nM measured after 48 hrs by flow cytometry. To be noted: Human immunodeficiency virus 1, HEK-293T. It is filed as cell-based.

Series [10] is described as follows: Cmax in monkey plasma at 20 mg/kg, po administered as single dose measured after 72 hrs by LC-MS/MS analysis. The series is classed as ADME, organism-based, Macaca mulatta. The arrangement: dose 20 mg/kg, route oral. To be noted: rhesus monkey.
Series [11] can be described thus: Tmax in monkey PBMC assessed as 3TC-TP level at 20 mg/kg, po administered as single dose by LC-MS/MS analysis. To be noted: rhesus monkey, in vivo. It is filed as ADME, organism-based, Macaca mulatta.
A short description of series [12]: Cmax in monkey plasma at 20 mg/kg, po administered as single dose by LC-MS/MS analysis. The series is classed as ADME, organism-based, Macaca mulatta. The arrangement: dose 20 mg/kg, route oral. The note with it: rhesus monkey.
Series [13] in a line: Cytotoxicity against human Hut/CCR5 cells assessed as reduction in cell viability at 1000 to 10000 nM measured after 120 hrs by MTT assay. It is filed as cell-based. To be noted: 10 µM.
In series [14] the target is Virion infectivity factor (Human immunodeficiency virus type 1 group M subtype B (isolate NY5)(HIV-1)) (UniProt P12504). Briefly: Inhibition of HIV1 HA-tagged Vif expressed in HEK293T cells co-expressing Myc-tagged pcDNA-APOBEC3G assessed as reduction in Vif-mediated A3G degradation at 10000 nM measured after 48 hrs by Western blot analysis. The series is classed as cell-based. The note with it: Human immunodeficiency virus 1, HEK-293T.

Series [15] relates to Human immunodeficiency virus 1. The series is described as follows: Antiviral activity against JRFL pseudotyped HIV1 infected in human Hut/CCR5 cells assessed as time needed to reach 50% reduction of virus infection at 1000 nM incubated with cells for 4 hrs prior to compound washout followed by viral infection and measured after 72 hrs by luciferase reporter gene assay. The series is classed as functional.

Series [16] is described as follows: AUC (0 to 24 hrs) in monkey PBMC assessed as 3TC-TP level at 20 mg/kg, po administered as single dose by LC-MS/MS analysis. It is filed as ADME, organism-based, Macaca mulatta. The arrangement: time < 24 hr, dose 20 mg/kg, route oral. To be noted: rhesus monkey, in vivo.
Series [17] is described as follows: AUC (0 to 24 hrs) in monkey plasma at 20 mg/kg, po administered as single dose by LC-MS/MS analysis. It is filed as ADME, organism-based, Macaca mulatta. On the set-up: dose 20 mg/kg, time < 24 hr, route oral. The note with it: rhesus monkey.

Sequence of Virion infectivity factor (Human immunodeficiency virus type 1 group M subtype B (isolate NY5)(HIV-1)) (P12504 whole entry): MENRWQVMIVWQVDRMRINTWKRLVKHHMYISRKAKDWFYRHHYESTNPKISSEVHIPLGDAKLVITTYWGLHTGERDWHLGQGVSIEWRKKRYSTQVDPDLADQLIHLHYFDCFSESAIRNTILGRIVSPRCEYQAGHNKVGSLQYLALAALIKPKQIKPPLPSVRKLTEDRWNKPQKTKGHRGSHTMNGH

By EC50 is commonly meant the concentration at which the effect is half-maximal. Broadly, the CC50 is the concentration giving 50% cytotoxicity. In [1], `CNc1ccn([C@@H]2O[C@@](CO)(N=[N+]=[N-])[C@@H](O)[C@@H]2F)c(=O)n1` came in with a concentration for a half-maximal effect (EC50) of 6.7 µM. Moreover, in series [2], the CC50 is at least 25 µM.
With `CCNc1ccn([C@@H]2O[C@@](CO)(N=[N+]=[N-])[C@@H](O)[C@@H]2F)c(=O)n1`, in [1], the EC50 is above 10 µM.
Still for that read-out and setting: the value for `[N-]=[N+]=N[C@]1(CO)O[C@@H](n2ccc(NC3CCCCC3)nc2=O)[C@@H](F)[C@@H]1O` was above 10 µM.
In [1], `CN(C)c1ccn([C@@H]2O[C@@](CO)(N=[N+]=[N-])[C@@H](O)[C@@H]2F)c(=O)n1` returned an EC50 of 13 µM. Besides, the half-maximal cytotoxic concentration (CC50) in series [2] is at least 25 µM.
For `CCN(CC)c1ccn([C@@H]2O[C@@](CO)(N=[N+]=[N-])[C@@H](O)[C@@H]2F)c(=O)n1`, in series [1], the 50% effective concentration (EC50) was above 10 µM.
In turn, `[N-]=[N+]=N[C@]1(CO)O[C@@H](n2ccc(N3CCCC3)nc2=O)[C@@H](F)[C@@H]1O` yielded an EC50 in series [1] above 10 µM.
On to `[N-]=[N+]=N[C@]1(CO)O[C@@H](n2ccc(NCCCO)nc2=O)[C@@H](F)[C@@H]1O`, for which the EC50 in series [1] is above 10 µM.
As for `[N-]=[N+]=N[C@]1(CO)O[C@@H](n2ccc(NCc3cccnc3)nc2=O)[C@@H](F)[C@@H]1O`, the midpoint of the response in [1], the EC50, lay at 1.3 µM. In addition, in [2], the half-maximal cytotoxic concentration (CC50) is at least 25 µM.
For `COc1ccc(Nc2ccn([C@@H]3O[C@@](CO)(N=[N+]=[N-])[C@@H](O)[C@@H]3F)c(=O)n2)c(OC)c1`, the EC50 in series [1] turned out to be 5.2 µM. For the same compound, the 50% cytotoxic concentration (CC50) in series [2] was at least 25 µM.
In the same order, the values of `[N-]=[N+]=N[C@]1(CO)O[C@@H](n2ccc(NO)nc2=O)[C@@H](F)[C@@H]1O` are 0.7 µM and at least 25 µM.
Taken in the same sequence, the figures for `[N-]=[N+]=N[C@]1(CO)O[C@@H](n2ccc(N(CCO)CCO)nc2=O)[C@@H](F)[C@@H]1O` were 0.8 µM and at least 25 µM.
`CCONc1ccn([C@@H]2O[C@@](CO)(N=[N+]=[N-])[C@@H](O)[C@@H]2F)c(=O)n1` registered an EC50 in [1] above 10 µM.
In [1], `[N-]=[N+]=N[C@]1(CO)O[C@@H](n2ccc(NCc3ccco3)nc2=O)[C@@H](F)[C@@H]1O` had an EC50 of 0.7 µM. The CC50 in [2] is at least 25 µM.
In the case of `[N-]=[N+]=N[C@]1(CO)O[C@@H](n2ccc(N3CCOCC3)nc2=O)[C@@H](F)[C@@H]1O`, the half-maximal effective concentration (EC50) in [1] was above 10 µM.
In series [1], `[N-]=[N+]=N[C@]1(CO)O[C@@H](n2ccc(NCCc3ccc(O)cc3)nc2=O)[C@@H](F)[C@@H]1O` came in with an EC50 of 5.7 µM. Also, in [2], the CC50 is at least 25 µM.
`[N-]=[N+]=N[C@]1(CO)O[C@@H](n2ccc(NCCO)nc2=O)[C@@H](F)[C@@H]1O` yielded a concentration for a half-maximal effect (EC50) in series [1] above 10 µM.
In the case of `CON(C)c1ccn([C@@H]2O[C@@](CO)(N=[N+]=[N-])[C@@H](O)[C@@H]2F)c(=O)n1`, the EC50 in [1] is above 10 µM.
With `CONc1ccn([C@@H]2O[C@@](CO)(N=[N+]=[N-])[C@@H](O)[C@@H]2F)c(=O)n1`, the concentration giving a half-maximal response (EC50) in [1] was above 10 µM.
For `CC(C)C[C@@H](C=O)NC(=O)[C@H](CC(C)C)NC(=O)[C@H](CC(C)C)NC(=O)OCc1ccccc1` (Cbz-Leu-Leu-Leu-aldehyde), the inhibition entry in series [3] and in [4] was “Active” throughout.
The term Kd denotes a measure of binding affinity in units of concentration. The term Tmax denotes the time at which the peak concentration occurs. Usually Cmax stands for the peak of the concentration-time curve. As a reminder, the AUC is the area under the concentration-time curve, a measure of exposure. What is called AUC(0-t) is exposure summed from dosing to a finite time, without extrapolation to infinity. Consider `Nc1ccn([C@@H]2CS[C@H](CO)O2)c(=O)n1` [LAMIVUDINE], for which binding in series [5] was characterised by a dissociation constant (Kd) of 1.51 µM. The Tmax in series [6] and in series [11] was 1 h throughout. Moreover, the Cmax in [7] came to 0.03 nM; in series [10] it was 93.6 nM; in [12] it was 31300 nM. For the same compound, the concentration for a half-maximal effect (EC50) in [1] amounted to 0.3 µM. Besides, the Time is 42.7 to 42.74 h in [8] and 26.75 h in series [15]. For the same compound, the inhibition entry in series [9] and in series [14] was “inactive” in each case. Also, the Activity entry in [13] was “Non-Toxic”. Moreover, in series [2], the CC50 was at least 25 µM. Besides, the AUC in [16] turned out to be 0.00013 µM·h. In series [17], this compound displayed an AUC(0-t) at 24 h of 395 µM·h.
